From patent publication US20230398125A1, “TREATING HEPATITIS” (Albireo AB, priority 2022, published 2023)
pIC50: −log10 of the molar value.

Assays:
Human NTCP = target: T1, Human NTCP (Homo sapiens, UniProt Q14973); test: [3H]preS1 peptide binding to NTCP-HEK293 cells
T1 construct: expressed in transfected cells; peptide purchased from Pharmaron
T1 sequence (Q14973 1-349): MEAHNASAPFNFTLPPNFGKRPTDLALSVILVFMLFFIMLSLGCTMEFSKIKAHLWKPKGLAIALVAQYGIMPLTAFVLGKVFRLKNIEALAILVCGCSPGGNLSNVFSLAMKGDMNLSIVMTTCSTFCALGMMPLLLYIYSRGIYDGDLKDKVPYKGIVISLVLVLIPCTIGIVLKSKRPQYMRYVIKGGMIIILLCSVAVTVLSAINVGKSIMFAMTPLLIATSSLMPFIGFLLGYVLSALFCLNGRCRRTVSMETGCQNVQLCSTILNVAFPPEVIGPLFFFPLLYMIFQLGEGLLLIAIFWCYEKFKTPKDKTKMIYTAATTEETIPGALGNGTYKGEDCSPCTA
Procedure: Human embryonic kidney (HEK293) cells were stably transfected with human NTCP, C-terminally tagged with the FLAG epitope (here referred to as NTCP-HEK293 cells). Cells were maintained at 37° C., 5% CO2 and 95% humidity in DMEM/F-12 medium (Thermo Fisher Scientific, Waltham, Mass., USA) supplemented with 10% fetal calf serum (Sigma-Aldrich, St. Louis, Mo., USA), 4 mM L-glutamine, and penicillin/streptomycin. HepG2 cells stably transfected with NTCP-FLAG (here referred to as NTCP-HepG2) were cultured under the same conditions in DMEM with all supplements listed above, except for L-glutamine. […]
Bile acid transport measurements were performed in the NTCP-HEK293 cells with tritium-labelled taurocholic acid (here referred to as [^3H]TC) (20 Ci/mmol, 0.09 mCi/mL, Perkin Elmer, Waltham, USA). […] Cell-associated radioactivity of [^3H]TC or [^3H]preS1 was quantified by liquid scintillation counting in a Packard Microplate Scintillation Counter TopCount NXT (Packard Instrument Company, Meriden, USA). Transport rates and [^3H]preS1 binding were determined in counts per minute (cpm). The mean of the 0% control was subtracted and the net [^3H]TC transport rates and net [^3H]preS1 binding rates, respectively, were expressed as % of control. IC50 values were calculated from quadruplicate determinations by GraphPad Prism 6 (GraphPad, San Diego, Calif., USA). […]

[1] = tested on: HBV (HepG2 AD38 genotype D); test: Combination of Compound 1 with tenofovir in HBV-infected primary human hepatocytes (MacSynergy II); format: cell-based, hepatitis B virus; conditions: summary of studies
Procedure: In two sets of experiments, the effect of combining Compound 1 with tenofovir was studied. Effects of the drug combination were calculated based on the activity of the two compounds when tested alone. The expected additive antiviral protection (based on the dose response curves of the individual agents used alone) was subtracted from the experimentally determined antiviral activity at each combination concentration resulting in a positive value (synergy), a negative value (antagonism), or zero (additivity). […] The results of the combination assays were expressed as a synergy volume μM2% calculated at the 95% confidence interval using the MacSynergy II template.
For these studies, synergy was defined as drug combinations yielding synergy volumes greater than 50 μM2%. Slightly synergistic activity and highly synergistic activity have been defined as yielding synergy volumes of […] and >100 μM2%, respectively.
Synergy volumes between −50 and 50 μM2% were considered additive and synergy volumes less than −50 μM2% were considered antagonistic.

## CCCCC1CN(c2ccccc2)c2cc(SC)c(O/C=C(\F)C(=O)O)cc2S(=O)(=O)N1C (centres unmarked) [Compound 1, (Z)-3-((3-butyl-2-methyl-7-(methylthio)-1,1-dioxido-5-phenyl-2,3,4,5-tetrahydro-1,2,5-benzothiadiazepin-8-yl)oxy)-2-fluoroacrylic acid]
Human NTCP
  pIC50: 6.83
[1]
  antiviral effect when given together with tenofovir disoproxil fumarate: additive
